In patent US8637535B2, “Polymorphic and other crystalline forms of cis-FTC” (Gilead Sciences, Inc., priority 2001, dated 2014):

Tests used:
[1] = below 130° C.
[2] = hand trituration 5 minutes or Fitzpatrick mill; DSC and PXRD
Description: Milling: (−)-cis-FTC was milled in a Fitzpatrick mill at high speed (4000 RPM), hammers forward with a 000-band screen. The drug was passed through the filter once and collected in a plastic bag.
Two batches of milled Form I (−)-cis-FTC were prepared: one by hand trituration in a mortar and pestle for 5 minutes, another by milling in a Fitzpatrick mill.

[3] = heated to 160° C., cooled to 25° C., reheated at 10° C./min
Description: Thermal events for Form I (−)-cis-FTC upon melting and subsequent cooling to room temperature were observed by DSC. A 5.5500 mg sample of Form I (−)-cis-FTC was heated to 160° C., that is just above the melting temperature for Form I, and then cooled back to 25° C.

[4] = solubility values greater than 100 mg/mL are considered highly soluble
Description: Equilibrium Solubility: Equilibrium solubility values were obtained using an excess of solid in a stoppered flask shaken in a temperature-controlled water bath at 25 C for 52 hours. Residual solid material was identified postequilibrium by hot-stage microscopy and PXRD. The supernatant was filtered across 0.45-μm membrane filters prior to dilution for HPLC analysis.

HIV [5] = conditions: cited from earlier work
HIV [6] = conditions: racemic mixture; cited from earlier work

## Nc1nc(=O)n([C@@H]2CS[C@H](CO)O2)cc1F [Form I, β-L-2-hydroxymethyl-5-(5-fluorocytosin-1-yl)-1,3-oxathiolane]
[1]
  thermodynamic stability among phases: most stable phase
[2]
  effect of milling on crystal form: does not affect the crystal form
[3]
  change in potency by HPLC: no change in potency
[4]
  solubility category: highly soluble

## Nc1nc(=O)n([C@@H]2CS[C@H](CO)O2)cc1F [(−)-(cis)-FTC, 4-amino-5-fluoro-1-(2-(hydroxymethyl)-1,3-oxathiolan-5-yl)-2(1H)-pyrimidinone (2R-cis)]
HIV [5]
  HIV activity: potent

## Nc1ccn(C2CSC(CO)O2)c(=O)n1 (racemic) [BCH-189, 2-hydroxymethyl-5-(cytosin-1-yl)-1,3-oxathiolane]
HIV [6]
  activity against HIV relative to AZT: approximately the same activity against HIV as AZT
